The values below come from US6495606B1, “Nitric oxide synthase inhibitors” (SmithKline Beecham Corporation, priority 1998, dated 2002).

The target in data set [1] is T1, human iNOS (Homo sapiens, UniProt P35228).
T1 construct: made in house
As to the kind of experiment: Inhibition of isolated human iNOS. The format is biochemical. The following applies: purified human iNOS, haemoglobin absorption assay. From the text:
1. Inhibition of Isolated Human iNOS
The inhibition of purified human iNOS may be determined using a preparation of human iNOS as described in the chapter “Expression if Human Nitric Oxide Synthase Isozymes” by Charles et al in Methods in Enzymology, 1996 Volume 268, 449-460. Activity may be monitored using quantitative absorption changes of haemoglobin as described by R. G. Knowles and J. Dawson in “A Microtitreplate Assay of Human NOS Isoforms” in Methods in Molecular Biology, 1998, Volume 100, 237-242, Nitric Oxide Protocols, Ed M. A. Titheradge, Humana Press, Totowa N.J.

The target of data set [2] is T2, nNOS (Rattus norvegicus, UniProt P29476).
T2 construct: rat cerebral cortex slices; from tissue; host or cells: rat cerebral cortex slices (McIlwain-chopped)
In words: Inhibition of nNOS in rat cortical slices (14C-arginine to 14C-citrulline). The format is cell-based. As to the method: 3. Inhibition of nNOS in Rat Cortical Slices
The effects of compounds on nNOS in rat brain slices was determined as described in Furfine et al (1994) J. Biol. Chem. 269, 26677-26683 and Lizasoain et al (1995) J. Neurochem. 64, 636-642. KCl (54 mM)—stimulated NO synthesis was measured by the conversion of 14C-arginine to 14C-citrulline over a 2 h period at 37° C. in Mcllwain—chopped (0.2 mm ×0.2 mm) rat cerebral cortex slices, following a 1 h preincubation period in the absence of compound or high KCl.

The target in data set [3] is T3, iNOS (Rattus norvegicus, UniProt Q06518).
T3 construct: endothelium-denuded rings were exposed to LPS; from tissue; host or cells: rat thoracic aorta rings, endothelium-denuded, LPS-treated
As to the kind of experiment: Inhibition of iNOS in situ in rat aortic rings (LPS-induced, endothelium-denuded, ring tension). The format is cell-based. As to the method: (§1) 2. Inhibition of eNOS and INOS in Rat Aortic Rings
(§2) The inhibition of eNOS and iNOS in situ in rat aortic rings was assessed by measuring the increases in ring tension caused by NO synthase inhibition. For studies of basal tone (reflecting eNOS), rings of thoracic aorta with intact endothelium were prepared as described previously (Rees et at. (1989) Br. J. Pharmol. 96, 418-424) and cumulative concentration curves obtained for the inhibitors in the presence of a threshold concentration of phenylephrine (ED10≈10 nM). For studies of induced smooth muscle tone (reflecting iNOS), endothelium-denuded rings were exposed to LPS (0.1 μg/ml from S. typhosa) in the presence of phenylephrine at approximately ED90 for 6 h as described previously (Rees et al. (1990) Biochem. Biophys. Res. Commun. 173, 541-547). During this time a progressive loss of tone occurred because of iNOS induction. Cumulative concentration curves were then obtained for the inhibitors.

A short description of data set [4]: Oral bioavailability and pharmacokinetics in rats. In kind it is in vivo, rat. As to the method:
4. Method for Determining the Oral Bioavailability of iNOS Inhibitor Compounds
Rats (3 animals per time point) were dosed intravenously (10 mg/kg) and orally (50 mg/kg) with test compound in an aqueous solution. Blood samples were taken at time intervals after administration and plasma prepared by centrifugation. Samples were stored at −20° C. until analysis.
Plasma (50 μl) was de-proteinated and compound derivatised with a quaternary ammonium reagent. Samples were then injected onto an HPLC system and compound concentration determined using mass spectrometric detection.
The plasma concentrations obtained by the above method were entered into a pharmacokinetic software package (PKCAL v 1.2s) and the data were fitted using a non-compartmental method. The oral bioavailability of the compounds was determined by comparing the Area Under the Curve (AUC) values calculated by the software for the oral profile with the AUC for the intravenous profile. The half-lives were obtained by fitting the terminal phase time points of the intravenous profile.

In data set [5] the target is T4, eNOS (Rattus norvegicus, UniProt Q62600).
T4 construct: from tissue; host or cells: rat thoracic aorta rings with intact endothelium
In words: Inhibition of eNOS in situ in rat aortic rings (basal tone, intact endothelium, ring tension). The format is cell-based. Particulars: rat aortic rings with intact endothelium, threshold phenylephrine. As to the method:
as §1, §2

T1 sequence (P35228 whole entry): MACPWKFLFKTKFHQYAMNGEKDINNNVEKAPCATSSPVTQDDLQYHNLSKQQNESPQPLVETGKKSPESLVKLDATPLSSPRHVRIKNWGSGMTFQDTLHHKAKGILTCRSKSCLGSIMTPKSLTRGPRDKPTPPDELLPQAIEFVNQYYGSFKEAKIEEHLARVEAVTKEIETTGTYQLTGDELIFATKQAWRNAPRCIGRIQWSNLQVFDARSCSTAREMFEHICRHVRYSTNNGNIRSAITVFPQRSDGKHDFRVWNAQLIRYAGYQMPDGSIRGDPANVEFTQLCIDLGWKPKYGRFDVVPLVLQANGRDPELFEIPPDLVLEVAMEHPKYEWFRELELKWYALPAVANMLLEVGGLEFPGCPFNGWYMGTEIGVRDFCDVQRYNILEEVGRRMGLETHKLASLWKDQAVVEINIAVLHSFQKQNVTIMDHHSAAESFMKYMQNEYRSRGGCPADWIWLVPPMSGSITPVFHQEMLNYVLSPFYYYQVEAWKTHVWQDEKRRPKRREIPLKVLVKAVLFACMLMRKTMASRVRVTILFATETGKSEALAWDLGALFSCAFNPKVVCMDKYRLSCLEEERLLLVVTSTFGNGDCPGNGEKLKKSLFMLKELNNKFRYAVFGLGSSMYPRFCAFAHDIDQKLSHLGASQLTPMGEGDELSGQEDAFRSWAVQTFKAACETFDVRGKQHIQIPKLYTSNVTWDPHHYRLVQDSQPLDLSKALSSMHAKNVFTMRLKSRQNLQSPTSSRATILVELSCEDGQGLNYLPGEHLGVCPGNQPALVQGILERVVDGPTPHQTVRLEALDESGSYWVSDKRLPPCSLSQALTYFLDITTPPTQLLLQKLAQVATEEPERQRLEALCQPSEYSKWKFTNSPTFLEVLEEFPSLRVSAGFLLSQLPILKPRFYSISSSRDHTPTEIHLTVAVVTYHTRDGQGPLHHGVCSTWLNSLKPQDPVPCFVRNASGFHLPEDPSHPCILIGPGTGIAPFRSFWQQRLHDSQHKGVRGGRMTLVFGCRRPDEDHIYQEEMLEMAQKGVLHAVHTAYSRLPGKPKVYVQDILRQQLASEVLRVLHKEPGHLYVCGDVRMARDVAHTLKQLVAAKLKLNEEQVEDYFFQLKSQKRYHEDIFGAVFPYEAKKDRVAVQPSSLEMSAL
T3 sequence (Q06518 whole entry): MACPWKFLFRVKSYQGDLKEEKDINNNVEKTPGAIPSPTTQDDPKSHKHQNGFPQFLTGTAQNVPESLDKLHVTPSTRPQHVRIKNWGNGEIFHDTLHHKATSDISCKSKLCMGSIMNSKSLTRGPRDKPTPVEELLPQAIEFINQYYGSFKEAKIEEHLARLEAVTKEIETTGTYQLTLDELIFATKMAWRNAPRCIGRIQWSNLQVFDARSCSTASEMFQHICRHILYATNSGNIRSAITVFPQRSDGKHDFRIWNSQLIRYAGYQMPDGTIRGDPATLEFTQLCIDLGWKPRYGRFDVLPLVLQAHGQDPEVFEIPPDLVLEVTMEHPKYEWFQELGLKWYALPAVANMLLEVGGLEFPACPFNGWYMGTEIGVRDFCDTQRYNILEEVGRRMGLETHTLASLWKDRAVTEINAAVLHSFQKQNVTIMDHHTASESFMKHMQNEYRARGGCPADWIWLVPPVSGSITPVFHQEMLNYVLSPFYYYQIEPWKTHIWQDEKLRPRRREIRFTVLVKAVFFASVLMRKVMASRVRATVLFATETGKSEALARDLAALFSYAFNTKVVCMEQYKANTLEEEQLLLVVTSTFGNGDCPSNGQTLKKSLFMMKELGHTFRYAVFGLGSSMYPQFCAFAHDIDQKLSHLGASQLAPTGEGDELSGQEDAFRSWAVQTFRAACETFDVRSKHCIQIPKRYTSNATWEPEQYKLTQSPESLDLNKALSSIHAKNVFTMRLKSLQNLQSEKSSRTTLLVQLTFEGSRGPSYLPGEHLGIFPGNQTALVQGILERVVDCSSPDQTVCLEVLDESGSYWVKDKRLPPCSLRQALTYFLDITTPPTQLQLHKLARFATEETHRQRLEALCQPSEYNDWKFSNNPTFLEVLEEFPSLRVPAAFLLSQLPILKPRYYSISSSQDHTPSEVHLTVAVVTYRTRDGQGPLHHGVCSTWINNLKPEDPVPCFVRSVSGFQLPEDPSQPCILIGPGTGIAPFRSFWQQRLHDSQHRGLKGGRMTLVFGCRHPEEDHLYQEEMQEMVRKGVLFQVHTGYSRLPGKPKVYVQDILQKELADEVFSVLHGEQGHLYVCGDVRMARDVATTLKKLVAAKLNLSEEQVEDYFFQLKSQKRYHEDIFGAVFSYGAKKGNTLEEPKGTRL
T2 sequence (P29476 whole entry): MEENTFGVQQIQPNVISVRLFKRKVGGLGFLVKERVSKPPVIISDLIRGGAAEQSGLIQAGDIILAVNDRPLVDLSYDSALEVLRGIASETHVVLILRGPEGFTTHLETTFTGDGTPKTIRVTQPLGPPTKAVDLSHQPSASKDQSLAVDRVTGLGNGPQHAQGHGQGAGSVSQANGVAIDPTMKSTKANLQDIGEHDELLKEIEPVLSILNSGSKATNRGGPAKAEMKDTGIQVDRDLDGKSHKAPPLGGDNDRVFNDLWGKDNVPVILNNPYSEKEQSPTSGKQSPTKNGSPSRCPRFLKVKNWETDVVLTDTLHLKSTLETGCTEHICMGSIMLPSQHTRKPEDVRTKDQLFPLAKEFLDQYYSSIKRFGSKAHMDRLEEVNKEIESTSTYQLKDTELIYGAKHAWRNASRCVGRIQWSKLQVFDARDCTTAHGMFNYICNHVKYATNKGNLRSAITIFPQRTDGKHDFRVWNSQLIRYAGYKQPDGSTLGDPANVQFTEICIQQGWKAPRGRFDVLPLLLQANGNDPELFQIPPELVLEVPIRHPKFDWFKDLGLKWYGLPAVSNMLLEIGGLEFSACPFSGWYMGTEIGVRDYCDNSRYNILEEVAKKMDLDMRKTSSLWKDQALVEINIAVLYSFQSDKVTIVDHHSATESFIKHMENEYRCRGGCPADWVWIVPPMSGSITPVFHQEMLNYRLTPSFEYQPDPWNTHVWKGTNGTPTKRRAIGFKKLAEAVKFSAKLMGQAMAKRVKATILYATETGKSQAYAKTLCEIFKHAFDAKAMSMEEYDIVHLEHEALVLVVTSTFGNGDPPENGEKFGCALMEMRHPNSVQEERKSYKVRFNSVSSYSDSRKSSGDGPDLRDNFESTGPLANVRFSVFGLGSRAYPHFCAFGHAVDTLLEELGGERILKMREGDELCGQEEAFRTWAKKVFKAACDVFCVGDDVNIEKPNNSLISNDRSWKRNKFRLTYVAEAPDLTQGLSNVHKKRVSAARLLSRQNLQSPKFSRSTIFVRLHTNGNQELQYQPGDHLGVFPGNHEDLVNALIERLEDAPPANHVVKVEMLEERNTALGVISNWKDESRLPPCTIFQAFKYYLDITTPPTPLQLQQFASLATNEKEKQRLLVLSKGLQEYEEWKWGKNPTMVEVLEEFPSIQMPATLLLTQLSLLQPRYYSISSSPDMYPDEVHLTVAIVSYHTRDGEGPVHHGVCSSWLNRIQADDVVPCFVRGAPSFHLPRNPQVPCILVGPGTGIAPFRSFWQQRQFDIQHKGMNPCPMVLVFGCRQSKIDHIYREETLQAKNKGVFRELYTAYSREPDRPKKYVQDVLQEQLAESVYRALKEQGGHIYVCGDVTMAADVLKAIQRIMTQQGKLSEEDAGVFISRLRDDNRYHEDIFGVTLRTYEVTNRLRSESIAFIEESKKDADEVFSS
T4 sequence (Q62600 2-1202): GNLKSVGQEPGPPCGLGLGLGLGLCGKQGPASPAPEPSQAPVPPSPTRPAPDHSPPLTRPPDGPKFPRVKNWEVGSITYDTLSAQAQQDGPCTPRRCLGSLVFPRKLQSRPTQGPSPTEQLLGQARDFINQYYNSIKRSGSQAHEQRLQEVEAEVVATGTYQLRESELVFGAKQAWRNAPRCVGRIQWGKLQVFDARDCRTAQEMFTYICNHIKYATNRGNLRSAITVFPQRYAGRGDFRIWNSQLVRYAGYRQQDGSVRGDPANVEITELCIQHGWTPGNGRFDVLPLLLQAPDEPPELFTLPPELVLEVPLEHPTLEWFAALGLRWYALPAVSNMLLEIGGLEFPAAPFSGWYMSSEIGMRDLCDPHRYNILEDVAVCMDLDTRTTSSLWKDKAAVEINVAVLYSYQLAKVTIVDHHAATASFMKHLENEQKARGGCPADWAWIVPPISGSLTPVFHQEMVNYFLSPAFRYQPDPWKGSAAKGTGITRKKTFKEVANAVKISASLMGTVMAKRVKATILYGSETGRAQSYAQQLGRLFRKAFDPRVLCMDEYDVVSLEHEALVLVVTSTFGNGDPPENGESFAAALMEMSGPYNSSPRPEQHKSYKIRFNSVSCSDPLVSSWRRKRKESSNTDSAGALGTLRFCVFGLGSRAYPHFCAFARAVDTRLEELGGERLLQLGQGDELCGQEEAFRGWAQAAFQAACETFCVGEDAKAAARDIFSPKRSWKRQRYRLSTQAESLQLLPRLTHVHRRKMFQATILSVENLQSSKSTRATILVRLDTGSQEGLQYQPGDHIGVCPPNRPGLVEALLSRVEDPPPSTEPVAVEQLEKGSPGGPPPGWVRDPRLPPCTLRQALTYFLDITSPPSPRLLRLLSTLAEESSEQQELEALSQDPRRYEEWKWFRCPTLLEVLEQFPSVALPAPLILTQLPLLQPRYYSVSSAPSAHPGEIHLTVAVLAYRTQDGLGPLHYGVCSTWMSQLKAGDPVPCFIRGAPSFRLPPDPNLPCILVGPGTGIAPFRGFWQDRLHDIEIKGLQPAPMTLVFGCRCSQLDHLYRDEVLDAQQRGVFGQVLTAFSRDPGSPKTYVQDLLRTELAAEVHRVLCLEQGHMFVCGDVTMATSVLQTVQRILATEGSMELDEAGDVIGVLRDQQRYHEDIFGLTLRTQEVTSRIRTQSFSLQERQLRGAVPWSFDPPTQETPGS

“S-[(R)-2-(1-Iminoethylamino)propyl]-D-cysteine Dihydrochloride [Example 4]” displayed an IC50 in data set [1] of 48 µM.
On to “S-[(R)-2-(1-Iminoethylamino)propyl]-L-cysteine Dihydrochloride [Example 1]”, for which the IC50 was 2 µM in data set [1]; over 80 µM in data set [2] (rat cerebral cortex slices, KCl (54 mM)-stimulated NO synthesis, 2 h, 37° C.); 0.26 µM in data set [3] (endothelium-denuded, LPS 0.1 μg/ml 6 h, phenylephrine approx. ED90); over 20 µM in data set [5]. For the same substance, in data set [2] (rat tissue assays), the “selectivity for iNOS versus nNOS” value is given as over 300 fold. For the same substance, the “selectivity iNOS vs eNOS” value in data set [3] is reported as over 75. In addition, the half-life in data set [4] (intravenous 10 mg/kg, terminal phase) was 2 to 4 h. Further, the oral bioavailability in data set [4] (oral 50 mg/kg vs intravenous 10 mg/kg, AUC comparison) is given as over 90%.
“S-[(R/S)-2-(1-Iminoethylamino, 2-Cyclopropyl)ethyl]-L-cysteine Dihydrochloride [Example 7]” yielded an IC50 in data set [1] of 6.2 µM.
On the same count and under the same terms, then “S-[(S)-2-(1-Iminoethylamino)propyl]-D-cysteine Dihydrochloride [Example 3]”, with 6.6 µM; and “S-[(S)-2-(1-Iminoethylamino)propyl]-L-cysteine Dihydrochloride [Example 2]”, with 39 µM.
